Experimental data as given in patent publication US7459471B2, “Inclusion compound comprising cucurbituril derivatives as host molecule and pharmaceutical composition comprising the same” (Postech Foundation, priority 2001, dated 2008).

How the values were obtained:
[1] = Isothermal microcalorimeter titration of oxaliplatin and cucurbitu[7]ril; type: physicochemical; conditions: 25° C., 20 mM oxaliplatin, 1 mM cucurbitu[7]ril
[2] = test system: HCT-15 human colon tumor cells; test: SRB (sulforhodamine B) assay, antiproliferative activity, HCT-15; type: cell-based
Protocol: (§1) Anticancer activities of the inclusion compounds synthesized in Synthesis Examples 1 and 2 were measured as follows.
(§2) First, the oxaliplatin-cucurbitu[7]ril inclusion compounds synthesized in Synthesis Examples 1 and 2, were freeze-dried to prepare samples. Tumor cells used were A 549 (human non-small cell lung), SKOV-3 (human ovarian), SKMEL-2 (human melanoma), XF498 (human CNS), and HCT-15 (human colon), and analyzed by SRB (sulforhodamine B) assay.

[3] = test system: SKMEL-2 human melanoma tumor cells; test: SRB (sulforhodamine B) assay, antiproliferative activity, SKMEL-2; type: cell-based
Protocol: as §1, §2

[4] = test system: SKOV-3 human ovarian tumor cells; test: SRB (sulforhodamine B) assay, antiproliferative activity, SKOV-3; type: cell-based
Protocol: as §1, §2

[5] = test system: XF-498 human CNS tumor cells; test: SRB (sulforhodamine B) assay, antiproliferative activity, XF-498; type: cell-based
Protocol: as §1, §2

[6] = test system: A549 human non-small cell lung tumor cells; test: SRB (sulforhodamine B) assay, antiproliferative activity, A549; type: cell-based
Protocol: as §1, §2

Row | Structure (SMILES) | binding constant [1] | binding enthalpy [1] [kcal/mol] | Antiproliferative activity (ED50/μM) [2] [µM] | Antiproliferative activity (ED50/μM) [3] [µM] | Antiproliferative activity (ED50/μM) [4] [µM] | Antiproliferative activity (ED50/μM) [5] [µM] | Antiproliferative activity (ED50/μM) [6] [µM]
1 | N[C@@H]1CCCC[C@H]1N.O=C([O-])C(=O)[O-].[Pt+2] (relative stereo) [Oxaliplatin, (trans-L-diaminocyclohexane)oxalatoplatinum (II)] | 2.39×10^5(±0.4) M^−1 | -6.33 | 0.90 | 0.97 | 0.67 | 0.49 | 0.42
2 | N.N.[Cl][Pt][Cl] [Cisplatin] |  |  | 1.32 | 3.08 | 2.87 | 0.46 | 1.17
